In ChEMBL document CHEMBL1909526, “Berkeleyones and related meroterpenes from a deep water acid mine waste fungus that inhibit the production of interleukin 1-β from induced inflammasomes” (J Nat Prod, 2011) one finds inhibition data, which are given here for 7 molecules.

Each structure is given as a SMILES string.

For one test, the target named is T1, Caspase-1 (Homo sapiens) (UniProt P29466).
T1 sequence (whole entry): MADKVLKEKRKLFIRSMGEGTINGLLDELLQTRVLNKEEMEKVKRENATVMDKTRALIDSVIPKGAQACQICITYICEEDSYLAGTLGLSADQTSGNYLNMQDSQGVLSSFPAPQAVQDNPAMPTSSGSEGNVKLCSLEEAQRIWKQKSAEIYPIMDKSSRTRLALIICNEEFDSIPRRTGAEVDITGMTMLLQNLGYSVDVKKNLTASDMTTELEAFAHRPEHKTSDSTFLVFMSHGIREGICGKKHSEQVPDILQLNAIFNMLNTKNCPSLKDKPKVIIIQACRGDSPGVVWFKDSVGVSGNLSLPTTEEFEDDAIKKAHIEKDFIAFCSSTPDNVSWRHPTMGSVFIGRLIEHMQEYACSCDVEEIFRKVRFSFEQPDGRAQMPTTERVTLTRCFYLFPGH
The test can be described thus: Inhibition of caspase1 in differentiated human THP-1 cells at 100 ug/ml after 24 hrs by fluorometric assay. Format: cell-based.
Regarding `C=C(C)C1=CC[C@@]2(C)[C@@H](C[C@]3(C)C(=C)[C@@]2(C(=O)OC)C(=O)[C@@](C)(O)C3=O)[C@]1(C)CCC(=O)O`, the inhibition is 0%.
Same read-out and setting: the value for `C=C1[C@@]2(C)C[C@H]3[C@]4(C)CC[C@@H](O)C(C)(C)[C@H]4CC[C@]3(C)[C@]1(C(=O)OC)C(=O)[C@@](C)(O)C2=O` was 68%.
The same measure, in the same setting: the value for `C=C1[C@@]2(C)C[C@H]3[C@]4(C)CCC(=O)C(C)(C)[C@H]4CC[C@]3(C)[C@]1(C(=O)OC)C(=O)[C@@](C)(O)C2=O` was 97%; that for `C=C1[C@@]2(C)C[C@H]3C(C)=C4CC(=O)OC(C)(C)C4=CC[C@]3(C)[C@]1(C(=O)OC)C(=O)[C@@](C)(O)C2=O` was 89%.
`C=C1[C@@]2(C)C[C@H]3[C@]4(C)CCC(=O)OC(C)(C)[C@@H]4CC[C@]3(C)[C@]1(C(=O)OC)C(=O)[C@@](C)(O)C2=O` registered an inhibition of 77%.
On the same count and under the same terms, the value for `C=C1[C@@]2(C)C[C@@H]3[C@](C)(CC=C4C(C)(C)OC(=O)CC[C@]43C)[C@]1(C(=O)OC)C(=O)[C@@](C)(O)C2=O` was 100%.

The target of the next test is T1, Caspase-1 (Homo sapiens). Put plainly: Inhibition of caspase1 in differentiated human THP-1 cells at 0.0005 ug/ml after 24 hrs by fluorometric assay. Format: cell-based.
With `CC(=O)N[C@@H](Cc1ccc(O)cc1)C(=O)N[C@H](C(=O)N[C@@H](C)C(=O)N[C@H](C=O)CC(=O)O)C(C)C`, the inhibition is 100%.

Broadly, the inhibition is the change of the read-out against control, counted positive when it falls. Read a high inhibition as a response far below the control.
